Measured values reported in the NIST ThermoML archive (doi:10.1016/j.jct.2016.02.016).

Legend:
[1] = xn = mol fraction of the nth substance listed; details: 100 kPa, Liquid; for speed of sound: Frequency=3 MHz, Sing-around technique in a fixed-path interferometer; for mass density: Vibrating tube method
[2] = refractive index (Na D-line) (dimensionless); xn = mol fraction of the nth substance listed; details: 100 kPa, Liquid, Standard Abbe refractometry

CCC(C)=O [butanone] + CN(C)C=O
Details | mass density, [1] [kg/m3] | refractive index, [2] | speed of sound, [1] [m/s]
293.15 K, x2 = 0 | 805.06 | 1.37872 | 1212.6
293.15 K, x2 = 0.0482 | 811.508 | 1.3812 | 1224.5
293.15 K, x2 = 0.1051 | 819.281 | 1.3841 | 1238.6
293.15 K, x2 = 0.148 | 825.263 | 1.38629 | 1249.6
293.15 K, x2 = 0.1915 | 831.169 | 1.38843 | 1262.8
293.15 K, x2 = 0.253 | 839.789 | 1.39163 | 1276.1
293.15 K, x2 = 0.3008 | 846.349 | 1.39408 | 1288.2
293.15 K, x2 = 0.3386 | 851.673 | 1.39604 | 1298
293.15 K, x2 = 0.3915 | 859.222 | 1.39872 | 1311.8
293.15 K, x2 = 0.4432 | – | 1.40144 | –
293.15 K, x2 = 0.4887 | 873.095 | 1.40384 | 1337.4
293.15 K, x2 = 0.5514 | 882.097 | – | 1354.1
293.15 K, x2 = 0.5536 | – | 1.40712 | –
293.15 K, x2 = 0.6017 | 889.386 | 1.40972 | 1367.5
293.15 K, x2 = 0.6519 | 896.759 | 1.41237 | 1381.2
293.15 K, x2 = 0.7023 | 904.135 | 1.41495 | 1394.9
293.15 K, x2 = 0.7525 | 911.634 | 1.41752 | 1408.8
293.15 K, x2 = 0.8002 | 918.668 | 1.42009 | 1421.7
293.15 K, x2 = 0.8492 | 926.05 | 1.42274 | 1435.2
293.15 K, x2 = 0.9032 | 934.175 | 1.42553 | 1450.2
293.15 K, x2 = 0.9477 | 940.9 | 1.42785 | 1462.4
298.15 K, x2 = 0 | 799.78 | 1.37605 | 1191.5
298.15 K, x2 = 0.0519 | 806.811 | 1.37886 | 1204.4
298.15 K, x2 = 0.1048 | 814.011 | 1.38152 | 1217.5
298.15 K, x2 = 0.1506 | 820.379 | 1.38397 | 1229.3
298.15 K, x2 = 0.1948 | 826.51 | 1.38631 | 1240.5
298.15 K, x2 = 0.2482 | 834.008 | 1.38913 | 1254.4
298.15 K, x2 = 0.3032 | 841.593 | 1.39213 | 1268.4
298.15 K, x2 = 0.3543 | 848.769 | 1.39479 | 1281.6
298.15 K, x2 = 0.3962 | 854.829 | 1.39697 | 1292.8
298.15 K, x2 = 0.4495 | 862.429 | 1.39982 | 1306.9
298.15 K, x2 = 0.4916 | 868.442 | 1.40199 | 1318
298.15 K, x2 = 0.5536 | 877.384 | 1.40522 | 1334.6
298.15 K, x2 = 0.5946 | 883.427 | 1.40739 | 1345.8
298.15 K, x2 = 0.6572 | 892.579 | 1.41063 | 1362.3
298.15 K, x2 = 0.7034 | 899.388 | 1.41301 | 1375.5
298.15 K, x2 = 0.7461 | 905.863 | 1.41516 | 1387.6
298.15 K, x2 = 0.7965 | 913.261 | 1.41779 | 1401.3
298.15 K, x2 = 0.8488 | 921.083 | 1.42048 | 1415.8
298.15 K, x2 = 0.894 | 928.027 | 1.42276 | 1428.6
298.15 K, x2 = 0.9427 | 935.405 | 1.42542 | 1442.1
303.15 K, x2 = 0 | 794.55 | 1.37351 | 1172
303.15 K, x2 = 0.0496 | 801.341 | 1.37623 | 1184.6
303.15 K, x2 = 0.1068 | 809.288 | 1.37911 | 1199.1
303.15 K, x2 = 0.1478 | 814.925 | 1.38113 | 1209.5
303.15 K, x2 = 0.1836 | 819.8 | 1.38314 | 1218.5
303.15 K, x2 = 0.2521 | 829.427 | 1.38686 | 1236.4
303.15 K, x2 = 0.2943 | 835.351 | 1.38911 | 1248.2
303.15 K, x2 = 0.3532 | 843.706 | 1.39202 | 1262.8
303.15 K, x2 = 0.3938 | 849.516 | 1.39409 | 1273.5
303.15 K, x2 = 0.4538 | 858.11 | 1.39728 | 1289.4
303.15 K, x2 = 0.4969 | 864.319 | 1.39967 | 1301.1
303.15 K, x2 = 0.5486 | 871.924 | 1.40242 | 1315.5
303.15 K, x2 = 0.6028 | 879.882 | 1.40517 | 1330.1
303.15 K, x2 = 0.6517 | 886.955 | 1.4078 | 1343.2
303.15 K, x2 = 0.7023 | 894.541 | 1.4105 | 1357.4
303.15 K, x2 = 0.7483 | 901.328 | 1.41287 | 1369.9
303.15 K, x2 = 0.7995 | 908.942 | 1.41553 | 1384.1
303.15 K, x2 = 0.8514 | 916.844 | 1.41823 | 1399
303.15 K, x2 = 0.8982 | 923.832 | 1.42066 | 1410.9
303.15 K, x2 = 0.946 | 931.082 | 1.4232 | 1425.2
